Numbered stars: 1 amine (or outer) side, 2 acyl side, 3 side chain; on linkers, the order of the positions; unused ones are H or OH. Bridge positions count the residues as written; N and C are the ends. Square brackets hold non-standard residues; d marks the D form. Peptide text beside a SMILES is read from it. * marks the point of attachment. pTerphenylCO(4''-OnC5H11) = CCCCCOc1ccc(-c2ccc(-c3ccc(C(=O)*)cc3)cc2)cc1; Orn(4R-OH,5R-OH) = O=C([C@H](C[C@@H](O)[C@@H](O)N[*:3])N[*:1])[*:2]; hTyr(3S-OH,4S-OH) = N[C@H](C(=O)O)[C@H](O)[C@@H](O)c1ccc(O)cc1; Pro(3S-OH,4S-Me) = C[C@H]1CN[C@H](C(=O)O)[C@H]1O; Hyp = O=C(O)[C@@H]1C[C@@H](O)CN1
What was measured:
clinical [1] = details: human, in vivo, iv, CL
clinical [2] = details: human, in vivo, iv
clinical [3] = details: human, in vivo, iv, t1/2
clinical [4] = details: human, in vivo, iv, Vdss

With `Nc1ncnc2c1ncn2CCOCP(=O)(O)O` [ADEFOVIR] the clearance (clinical [1]) was 3.7 mL/min/kg, the MRT (clinical [2]) was 1.9 h and the half-life (clinical [3]) was 96 min. It also gave a Vd (clinical [4]) of 0.42 L/kg.

Work on `CN(C)Cc1nnc2n1-c1ccc(Cl)cc1C(c1ccccc1)=NC2` [ADINAZOLAM] yielded a clearance (clinical [1]) of 6.2 mL/min/kg, an MRT (clinical [2]) of 2.6 h and a half-life (clinical [3]) of 126 min. For the same compound, the Vd (clinical [4]) was 0.98 L/kg.

With `COc1cc2nc(N(C)CCCNC(=O)C3CCCO3)nc(N)c2cc1OC` (stereo not given) [ALFUZOSIN] the clearance (clinical [1]) was 5.9 mL/min/kg, the MRT (clinical [2]) was 4.2 h and the half-life (clinical [3]) was 288 min. It also gave a Vd (clinical [4]) of 1.5 L/kg.

For `C=CCN1CCCC1CNC(=O)c1cc2[nH]nnc2cc1OC` (stereo not given) [ALIZAPRIDE], the clearance (clinical [1]) was 6.6 mL/min/kg, the MRT (clinical [2]) was 4 h and the half-life (clinical [3]) was 168 min. The Vd (clinical [4]) was 1.6 L/kg.

Work on `Cc1[nH]cnc1CN1CCc2c(c3ccccc3n2C)C1=O` [ALOSETRON] yielded a clearance (clinical [1]) of 8.7 mL/min/kg, an MRT (clinical [2]) of 2.1 h and a half-life (clinical [3]) of 96 min. It also gave a Vd (clinical [4]) of 1.1 L/kg.

Compound `Cc1nnc2n1-c1ccc(Cl)cc1C(c1ccccc1)=NC2` [ALPRAZOLAM] has a clearance (clinical [1]) of 0.74 mL/min/kg, an MRT (clinical [2]) of 18 h and a half-life (clinical [3]) of 720 min. It also gave a Vd (clinical [4]) of 0.8 L/kg.

`CC1(C)S[C@@H]2[C@H](/N=C/N3CCCCCC3)C(=O)N2[C@H]1C(=O)O` [AMDINOCILLIN] gave a clearance (clinical [1]) of 6.3 mL/min/kg, an MRT (clinical [2]) of 1 h and a half-life (clinical [3]) of 66 min. It also gave a Vd (clinical [4]) of 0.37 L/kg.

`CN(C)CCC=C1c2ccccc2CCc2ccccc21` [AMITRIPTYLINE] gave a clearance (clinical [1]) of 6.1 mL/min/kg, an MRT (clinical [2]) of 24 h and a half-life (clinical [3]) of 1020 min. The Vd (clinical [4]) was 8.7 L/kg.

Compound `CC1(C)S[C@@H]2[C@H](NC(=O)[C@H](N)c3ccc(O)cc3)C(=O)N2[C@H]1C(=O)O` [AMOXICILLIN] has a clearance (clinical [1]) of 3.3 mL/min/kg, an MRT (clinical [2]) of 1.3 h and a half-life (clinical [3]) of 66 min. The Vd (clinical [4]) was 0.25 L/kg.

For `CC1(C)S[C@@H]2[C@H](NC(=O)[C@H](N)c3ccccc3)C(=O)N2[C@H]1C(=O)O` [AMPICILLIN], the clearance (clinical [1]) was 2.8 mL/min/kg, the MRT (clinical [2]) was 1.3 h and the half-life (clinical [3]) was 84 min. For the same compound, the Vd (clinical [4]) was 0.22 L/kg.

`CCCCCOc1ccc(-c2ccc(-c3ccc(C(=O)N[C@H]4C[C@@H](O)[C@@H](O)NC(=O)[C@@H]5[C@@H](O)[C@@H](C)CN5C(=O)[C@H]([C@@H](C)O)NC(=O)[C@H]([C@H](O)[C@@H](O)c5ccc(O)cc5)NC(=O)[C@@H]5C[C@@H](O)CN5C(=O)[C@H]([C@@H](C)O)NC4=O)cc3)cc2)cc1` [ANIDULAFUNGIN] ({pTerphenylCO(4''-OnC5H11)}-[Orn(4R-OH,5R-OH)]T[Hyp][hTyr(3S-OH,4S-OH)]T[Pro(3S-OH,4S-Me)]; lactam 1-C) gave a clearance (clinical [1]) of 0.21 mL/min/kg, an MRT (clinical [2]) of 45 h and a half-life (clinical [3]) of 2400 min. The Vd (clinical [4]) was 0.57 L/kg.

In the case of `Cc1cc(=O)n(-c2ccccc2)n1C` [ANTIPYRINE], the clearance (clinical [1]) was 0.64 mL/min/kg, the MRT (clinical [2]) was 20 h and the half-life (clinical [3]) was 720 min. For the same compound, the Vd (clinical [4]) was 0.77 L/kg.

For `CN(C)C(=O)Oc1cc(OC(=O)N(C)C)cc(C(O)CNC(C)(C)C)c1` (stereo not given) [BAMBUTEROL], the clearance (clinical [1]) was 18 mL/min/kg, the MRT (clinical [2]) was 1.4 h and the half-life (clinical [3]) was 156 min. For the same compound, the Vd (clinical [4]) was 1.6 L/kg.

Compound `O=C(CCCN1CCC(n2c(O)nc3ccccc32)CC1)c1ccc(F)cc1` [BENPERIDOL] has a clearance (clinical [1]) of 8.3 mL/min/kg, an MRT (clinical [2]) of 7.5 h and a half-life (clinical [3]) of 348 min. For the same compound, the Vd (clinical [4]) was 3.8 L/kg.

`CC(C)NCC(O)COc1ccc(CCOCC2CC2)cc1` (stereo not given) [BETAXOLOL] gave a clearance (clinical [1]) of 3.4 mL/min/kg, an MRT (clinical [2]) of 24 h and a half-life (clinical [3]) of 1020 min. It also gave a Vd (clinical [4]) of 4.8 L/kg.

`CC(C)(C)[C@]1(O)CC2OC(=O)CC23C(=O)OC2OC(=O)[C@H](O)C231` (stereo not given in full) [BILOBALIDE] showed a clearance (clinical [1]) of 10 mL/min/kg, an MRT (clinical [2]) of 4 h and a half-life (clinical [3]) of 192 min. It also gave a Vd (clinical [4]) of 2.5 L/kg.

Compound `N#Cc1ccc2c(c1)CN(S(=O)(=O)c1cccs1)[C@H](Cc1ccccc1)CN2Cc1cnc[nH]1` [BMS-214662] has a clearance (clinical [1]) of 9.6 mL/min/kg, an MRT (clinical [2]) of 1.4 h and a half-life (clinical [3]) of 96 min. For the same compound, the Vd (clinical [4]) was 0.84 L/kg.

For `O=C1CN=C(c2ccccn2)c2cc(Br)ccc2N1` [BROMAZEPAM], the clearance (clinical [1]) was 0.51 mL/min/kg, the MRT (clinical [2]) was 28 h and the half-life (clinical [3]) was 1260 min. The Vd (clinical [4]) was 0.85 L/kg.

Compound `CCCC1O[C@@H]2C[C@H]3[C@@H]4CCC5=CC(=O)C=C[C@]5(C)[C@H]4[C@@H](O)C[C@]3(C)[C@]2(C(=O)CO)O1` (stereo not given in full) [BUDESONIDE] has a clearance (clinical [1]) of 20 mL/min/kg, an MRT (clinical [2]) of 3.2 h and a half-life (clinical [3]) of 168 min. For the same compound, the Vd (clinical [4]) was 3.9 L/kg.

Work on `COc1cc(OC)c(C(=O)CCCN2CCCC2)c(OC)c1` [BUFLOMEDIL] yielded a clearance (clinical [1]) of 5.6 mL/min/kg, an MRT (clinical [2]) of 3.9 h and a half-life (clinical [3]) of 198 min. The Vd (clinical [4]) was 1.3 L/kg.

For `CCCCNc1cc(C(=O)O)cc(S(N)(=O)=O)c1Oc1ccccc1` [BUMETANIDE], the clearance (clinical [1]) was 2.5 mL/min/kg, the MRT (clinical [2]) was 1.1 h and the half-life (clinical [3]) was 72 min. For the same compound, the Vd (clinical [4]) was 0.16 L/kg.

`CCCCN1CCCCC1C(=O)Nc1c(C)cccc1C` (stereo not given) [BUPIVACAINE] showed a clearance (clinical [1]) of 4.3 mL/min/kg, an MRT (clinical [2]) of 3.3 h and a half-life (clinical [3]) of 186 min. For the same compound, the Vd (clinical [4]) was 0.84 L/kg.

`CS(=O)(=O)OCCCCOS(C)(=O)=O` [BUSULFAN] showed a clearance (clinical [1]) of 2.4 mL/min/kg, an MRT (clinical [2]) of 3.8 h and a half-life (clinical [3]) of 204 min. The Vd (clinical [4]) was 0.55 L/kg.

Work on `Cn1c(=O)c2c(ncn2C)n(C)c1=O` [CAFFEINE] yielded a clearance (clinical [1]) of 1.4 mL/min/kg, an MRT (clinical [2]) of 7.5 h and a half-life (clinical [3]) of 294 min. For the same compound, the Vd (clinical [4]) was 0.63 L/kg.

With `CC1(C)S[C@@H]2[C@H](NC(=O)C(C(=O)O)c3ccccc3)C(=O)N2[C@H]1C(=O)O` (stereo not given in full) [CARBENICILLIN] the clearance (clinical [1]) was 1.9 mL/min/kg, the MRT (clinical [2]) was 1.5 h and the half-life (clinical [3]) was 66 min. The Vd (clinical [4]) was 0.17 L/kg.

— ChEMBL document CHEMBL1614632, “Trend analysis of a database of intravenous pharmacokinetic parameters in humans for 670 drug compounds” (Drug Metab Dispos, 2008)
